Assay results taken from patent publication US20030004123A1, “Targeted gene transfer using G protein coupled receptors” (priority 1997, published 2003).

Assays:
[1] = system: WD human airway epithelial cells; assay: Cl- secretory response of WD human airway epithelial cultures to lumenal agonists; type: cell-based; details: agonist at 10^−4M, FIG. 3
From the text: Epithelial cells are derived from CF and non-CF nasal and bronchial airway epithelia using procedures similar to those described by Gray et al. 1996. Am. J Respir. Cell Mol. Biol. 14, 104-112. Resected nasal turbinates or portions of mainstem/lobar bronchi representing excess donor tissue are obtained at the time of lung transplantation under the auspices of the University of North Carolina at Chapel Hill Institutional Committee on the Protection of the Rights of Human Subjects. Epithelial cells are removed from the specimens by protease XIV digestion as described (Wu, R., et al., 1985. Am. Rev. Respir. Dis. 132, 311-320), but omitting the filtration step. 1-2×10^6 cells are plated per 100 mm tissue culture dish in modified LHC9 medium. Lechner, J. F. and Laveck, M. A. 1985. J. Tiss. Cult. Meth. 9, 43-48. The modifications include increasing the EGF concentration to 25 ng/ml, adjusting the retinoic acid concentration to 5×10^−8 M, and supplementation with 0.5 mg/ml bovine serum albumin and 0.8% bovine pituitary extract. At approximately 75% confluence, the cells are harvested by trypsinization and passage 1 cells are plated at a density of 2.5×10^5 cells on Transwell-Col inserts (Coming-Costar, 24 mm diameter, 0.4 μm pore size), in modified medium. The medium is similar to the supplemented LHC9 except that a 50:50 mixture of LHC Basal (Biofluids) and DMEM-H is used as the base, amphotericin and gentamycin are omitted and the EGF concentration is reduced to 0.5 ng/ml. After the cells grow to confluence (4-6 days) the apical surface of the cultures are given an air-liquid interface for another 25-30 days until use.
Investigations were carried out to identify which 7-TM receptors, if any, are localized in the apical membrane of WD human airway epithelial cells. Cultures of WD cells were exposed to NECA (an A2b receptor agonist), isoproterenol, bradykinin, or ATP (all at 10^−4M), and Cl-secretory responsiveness was determined.

[2] = molecular target: T1, HA-tagged human P2Y2 receptor (Homo sapiens, UniProt P41231); assay: Agonist-induced internalization of HA-P2Y2 receptor in A9 cells; type: cell-based; details: ATPγS 10^−4 M, within 45 minutes
T1 construct: expressed in transfected cells; host or cells: A9 cells (retroviral gene transfer)
T1 sequence (P41231 whole entry): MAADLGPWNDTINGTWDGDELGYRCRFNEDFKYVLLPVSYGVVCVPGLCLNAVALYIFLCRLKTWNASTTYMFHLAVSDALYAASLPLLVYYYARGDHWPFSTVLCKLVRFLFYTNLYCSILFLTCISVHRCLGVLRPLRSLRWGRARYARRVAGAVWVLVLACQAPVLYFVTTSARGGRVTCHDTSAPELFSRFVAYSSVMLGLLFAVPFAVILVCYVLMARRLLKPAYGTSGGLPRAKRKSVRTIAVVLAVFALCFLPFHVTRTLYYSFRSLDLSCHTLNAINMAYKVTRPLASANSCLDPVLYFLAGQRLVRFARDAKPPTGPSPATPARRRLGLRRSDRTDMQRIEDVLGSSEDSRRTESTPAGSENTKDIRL
From the text: To test the concept that the P2Y2 receptor is a candidate receptor for targeting based on the ability to bind and internalize an exogenous ligand, we have obtained CHO and A9 cells (both of which are not transducible by AdV) that express the HA-tagged human P2Y2 receptor (HA tag on the extracellular N-terminus) by retroviral gene transfer. HA-P2Y2 receptor expressing A9 cells, but not control cells, stain with fluorescently labeled anti-HA Abs under resting conditions. With agonist [ATPγS (10^−4 M)] exposure, approximately 80% of the receptors are internalized within 45 minutes. The internalization of P2Y2 receptor is mediated via coated pits.

[3] = molecular target: T2, human P2Y2-receptor (HA epitope-tag) in 1321N1 human astrocytoma cells (Homo sapiens, UniProt P41231); assay: Internalization of P2Y2-HA receptor in astrocytoma cells (immunofluorescence, ELISA); type: cell-based; details: 30 min ATPγS exposure
T2 construct: expressed in transfected cells; host or cells: 1321N1 human astrocytoma cells
T2 sequence (P41231 whole entry): as above

[4] = molecular target: T2, human P2Y2-receptor (HA epitope-tag) in 1321N1 human astrocytoma cells; details: ELISA, ATPγS exposures of 1 hr; cited from earlier work
P2Y2 receptors = molecular target: T3, P2Y2 receptors (Homo sapiens, UniProt P41231); assay: Inositol phosphate formation in astrocytoma cells expressing P2Y2 receptors; type: cell-based; details: FIG. 9A
T3 construct: expressed in transfected cells; host or cells: astrocytoma cells
T3 sequence (P41231 whole entry): as above
From the text: FIG. 9A is a graphical representation of a comparison of agonist potency of U2P4 and UTP in astrocytoma cells expressing P2Y2 receptors.

[5] = Metabolic stability in cystic fibrosis sputum; type: in vitro ADME; details: compared with UTP, FIG. 9B
From the text: FIG. 9B is a graphical representation of the metabolic stability of U2P4 compared with UTP in cystic fibrosis sputum.
Biologically active analogs of UTP that are more resistant to biological hydrolysis than UTP have been developed for linkage to vectors. The dinucleotide U2P4 has useful properties.

## Nc1ncnc2c1ncn2[C@@H]1O[C@H](COP(=O)(O)OP(=O)(O)OP(=O)(O)O)[C@@H](O)[C@H]1O [ATP]
[1]
  Cl-secretory responsiveness: the greatest response

## Nc1ncnc2c1ncn2[C@@H]1O[C@H](COP(=O)(O)OP(=O)(O)OP(O)(O)=S)[C@@H](O)[C@H]1O [ATPγS]
[2]
  receptors internalized: approximately 80%
[3]
  plasma membrane immunoreactivity of P2Y2-HA receptor: clear loss of immunoreactivity from the plasma membrane
[4]
  internalization efficiency (loss of receptor sites): 80%

## O=c1ccn([C@@H]2O[C@H](COP(=O)([O-])OP(=O)([O-])OP(=O)([O-])OP(=O)([O-])OC[C@H]3O[C@@H](n4ccc(=O)[nH]c4=O)[C@H](O)[C@@H]3O)[C@@H](O)[C@H]2O)c(=O)[nH]1.[Na+].[Na+].[Na+].[Na+] [Example U2P4]
P2Y2 receptors
  agonist potency relative to UTP (inositol phosphate release): equipotent with UTP
[5]
  hydrolysis in cystic fibrosis (CF) sputum: resistant to hydrolysis

## CCNC(=O)[C@H]1O[C@@H](n2cnc3c(N)ncnc32)[C@H](O)[C@@H]1O [NECA]
[1]
  Cl-secretory responsiveness: a Cl-secretory response was detected

## CC(C)NCC(O)c1ccc(O)c(O)c1 (centres unmarked) [isoproterenol]
[1]
  Cl-secretory responsiveness: a Cl-secretory response was detected
